Source: ChEMBL document CHEMBL1152099, “C5-piperazinyl-1,4-benzodiazepines, water-soluble, orally bioa vailable CCKB/gastrin receptor antagonists” (Bioorg Med Chem Lett, 1995)
pIC50: −log10 of the molar value. Values after ≈ are worked out from the molar mass of the structure shown.

Key:
[1] = target: T1, Cholecystokinin receptor type A (Rattus norvegicus, UniProt P30551); assay: Displacement of [125I]-BH CCK-8S from Cholecystokinin type A receptor in rat pancreas
T1 sequence (P30551 whole entry): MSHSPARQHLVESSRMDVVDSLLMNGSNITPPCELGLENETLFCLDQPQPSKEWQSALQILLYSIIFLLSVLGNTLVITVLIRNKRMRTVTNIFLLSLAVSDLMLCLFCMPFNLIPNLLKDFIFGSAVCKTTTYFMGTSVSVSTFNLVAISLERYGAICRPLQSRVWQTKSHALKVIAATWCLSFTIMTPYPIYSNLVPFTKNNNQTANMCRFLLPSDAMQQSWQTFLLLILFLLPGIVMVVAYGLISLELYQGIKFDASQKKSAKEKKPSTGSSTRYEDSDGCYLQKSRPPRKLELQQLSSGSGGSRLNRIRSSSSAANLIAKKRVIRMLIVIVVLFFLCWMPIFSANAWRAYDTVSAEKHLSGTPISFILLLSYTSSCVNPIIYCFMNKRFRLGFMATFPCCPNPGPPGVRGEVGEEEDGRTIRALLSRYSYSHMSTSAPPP

[2] = Bioavailability; type: ADME, organism-based; conditions: rat, in vivo
[3] = Plasma half-life was determined; type: ADME, organism-based; conditions: rat
[4] = species: Rattus norvegicus; assay: Compound was tested for its ability to block pentagastrin-induced single cell firing rate of rat ventromedial hyphalamic (VMH) neurons; type: functional
[5] = target: T2, Cholecystokinin receptor type A (Rattus norvegicus) (UniProt P30551); assay: Compound was tested for its binding affinity by measuring the displacement of [125I]-BH CCK-8S from CCKA receptor in rat pancreas at a concentration of 3000 nM
T2 sequence (whole entry): T1 sequence (P30551 whole entry)

[6] = Tmax was determined; type: ADME, organism-based; conditions: rat, in vivo
[7] = Compound was tested for solubility in water; type: ADME; conditions: read-out: S
[8] = Maximum plasma drug concentration was determined; type: ADME, organism-based; conditions: rat

| Compound | pIC50 [1] | inhibition [5] | also measured |
| --- | --- | --- | --- |
| Cc1cccc(NC(=O)NC2N=C(N3CCN(C)CC3)c3ccccc3N(C)C2=O)c1 (configuration not stated) | 5.37 |  |  |
| Cc1cccc(NC(=O)N[C@@H]2N=C(c3ccccc3)c3ccccc3N3C[C@H](C)N=C23)c1 | 5.81 |  |  |
| CCCc1cccc(NC(=O)NC2N=C(N3CCN(C)CC3)c3ccccc3N(CCC)C2=O)c1 (configuration not stated) | 5.27 |  |  |
| CCCN1C(=O)C(NC(=O)Nc2cccc(C(F)(F)F)c2)N=C(N2CCN(C)CC2)c2ccccc21 (configuration not stated) | 5.42 |  |  |
| CCCN1C(=O)[C@H](NC(=O)Nc2cccc(C)c2)N=C(N2CCN(C)CC2)c2ccccc21 | < 5.52 | 11% | bioavailability [2]: 51%; half-life [3]: 55 min; Kb [4]: 1.8 nM; Tmax [6]: 5 min; solubility [7]: 600 µg/mL (≈ 1340 µM); Cmax [8]: 469 ng/mL |
| Cc1cccc(NC(=O)NC2N=C(N3CCNCC3)c3ccccc3N(C)C2=O)c1 (configuration not stated) | < 5.52 | 3% |  |
| Cc1cccc(NC(=O)NC2N=C(N3CCN(C(=O)OC(C)(C)C)CC3)c3ccccc3N(C)C2=O)c1 (configuration not stated) | < 5.52 | 0% |  |
| CCCN1C(=O)C(NC(=O)Nc2cccc(OC)c2)N=C(N2CCN(C)CC2)c2ccccc21 (configuration not stated) | < 5.52 | 15% |  |
| CCCN1C(=O)C(NC(=O)Nc2cccc(C)c2)N=C(N2CCN(C)CC2)c2ccccc21 (configuration not stated) | 5.49 |  |  |
| CCCN1C(=O)C(NC(=O)Nc2cccc(CC)c2)N=C(N2CCN(C)CC2)c2ccccc21 (configuration not stated) | < 5.52 | 46% |  |
| CCCN1C(=O)[C@@H](NC(=O)Nc2cccc(C)c2)N=C(N2CCN(C)CC2)c2ccccc21 | 5.72 |  |  |
